Experiments:
[1] = tested on: savory taste, human panelists; assay: Umami/savory flavor experiments using human panelists (trained panel, difference from reference); type: in vivo; conditions: 12 mM MSG + cpd vs reference 12 mM MSG + 100 μM IMP
Description: General Panelist Selection: Basic screening of sensory taste testers: Potential panelists were tested for their abilities to rank and rate intensities of solutions representing the five basic tastes. Panelists ranked and rated intensity of five different concentrations of each of the five following compounds: sucrose (sweet), sodium chloride (salty), citric acid (sour), caffeine (bitter), and monosodium glutamate (savory). In order to be selected for participation in testing, panelists needed to correctly rank and rate samples for intensity, with a reasonable number of errors
Preliminary Taste Tests: The panelists selected in the above procedure were deemed qualified for performing Preliminary Taste Testing procedures. The preliminary taste tests are used to evaluate new compounds for intensity of basic tastes and off-tastes. A small group of panelists (n=5) taste approximately 5 concentrations of the compound (range typically between 1-100 μM, in half-log cycles, e.g., 1, 3, 10, 30, and 100 μM) in water and in a solution of 12 mM MSG to evaluate enhancement. Panelists rate the five basic tastes (sweet, salty, sour, bitter, and savory) as well as off-tastes (such as chemical, metallic, sulfur) on a labeled magnitude scale. Samples are served in 10 mL portions at room temperature. The purpose of the test is to determine the highest concentration at which there is no objectionable off-taste, and determine if obvious savory taste or enhancement of savory taste exists at any of the concentrations tested.
Trained Panelist Selection: A trained expert panel was used to further evaluate compounds that had been tested with the preliminary taste test.
Panelists for the trained panel were selected from the larger group of qualifying taste panelists. Panelists were further trained on savory taste by ranking and rating experiments using MSG and IMP combinations. Panelists completed a series of ranking, rating, and difference from reference tests with savory solutions. In ranking and rating experiments, panelists evaluated easy MSG concentrations (0, 6, 18, 36 mM) and more difficult MSG concentrations (3, 6, 12, 18 mM MSG) in water.
Compound testing with Trained Panel: Compounds tested by the trained panel were evaluated in difference from reference experiments. […] Test samples were solutions with varying amounts of MSG, IMP, and the compound.
Compounds were tested against the reference in samples with and without 12 mM MSG. All samples were presented in 10 ml volumes at room temperature. Two sessions were completed for each compound tested to evaluate panel reproducibility.

[2] = tested on: sweet taste, human panelists; assay: Sweet flavor and sweet flavor enhancement measurement using human panelists; type: in vivo
Description: Overview: Various concentrations of the experimental compound (normally aqueous solutions containing 1, 3, 10, and 30 uM concentrations of the experimental compound; and optionally 50 uM and/or 100 uM concentrations) are individually tasted by trained human subjects and rated for intensity of several taste attributes. The experimental compound may also be tasted when dissolved in a “key tastant” solution.
Procedure: An appropriate quantity of the experimental compound is dissolved in water typically also containing 0.1% ethanol, which is utilized to aid initial dispersion of the compound in the aqeuous stock solution. When appropriate, the experimental compound may also be dissolved in aqueous solutions of a “key tastant” (for example, 4% sucrose, 6% sucrose, 6% fructose/glucose, or 7% fructose/glucose, at pH 7.1 or 2.8).
Five human Subjects are used for preliminary taste tests. […] Subjects refrain from eating or drinking (except water) for at least 1 hour prior to the test. Subjects eat a cracker and rinse with water four times to clean the mouth before taste tests.
The aqueous solutions are dispensed in 10 ml volumes into 1 oz. sample cups and served to the Subjects at room temperature. Samples of the experimental compound dissolved in an appropriate key tastant (e.g., 4% sucrose, 6% fructose, or 6% fructose/glucose, typically at pH 7.1) at various concentrations of the experimental compound may also be served to the Subjects. Subjects also receive a reference sample of the key tastant (e.g., sucrose, fructose, or fructose/glucose, typically at pH 7.1) at different concentrations for comparison.
Subjects taste the solutions, starting with the lowest concentration, and rate intensity of the following attributes on the Labeled Magnitude Scale (LMS) for sweetness, saltiness, sourness, bitterness, savory (umami), and other (off-taste). Subjects rinse three times with water between tastings. If a particular concentration elicits an undesirable characteristic or off-taste, subsequent tastings of higher concentrations are eliminated. After a break, Subjects taste a solution of the key tastant (e.g., 4% sucrose, 6% fructose, or 6% fructose/glucose, typically at pH 7.1) without the experimental compound. Then solutions of the key tastant plus experimental compound are tasted in increasing order of concentration. The key tastant solution can be retasted for comparison with key tastant+experimental compound solutions if necessary. Discussion among panelists is permitted.
Subjects rate the difference in intensity of the test sample compared to the reference sample for the key attribute on a scale of −5 (much less sweet than the reference) to +5 (much more sweet than the reference). A score of 0 indicates the test sample is equally as sweet as the reference. […]

[3] = target: T1, hT1R1/hT1R3 umami receptor (Homo sapiens, UniProt Q7RTX0+Q7RTX1); assay: Umami taste enhancement activity assay (EC50 ratio vs. MSG); type: cell-based
T1 construct: expressed in transfected cells; host or cells: HEK293 derivative stably expressing Gα15, clone I-17, expression induced with mifepristone
T1 sequence (Q7RTX1 21-841): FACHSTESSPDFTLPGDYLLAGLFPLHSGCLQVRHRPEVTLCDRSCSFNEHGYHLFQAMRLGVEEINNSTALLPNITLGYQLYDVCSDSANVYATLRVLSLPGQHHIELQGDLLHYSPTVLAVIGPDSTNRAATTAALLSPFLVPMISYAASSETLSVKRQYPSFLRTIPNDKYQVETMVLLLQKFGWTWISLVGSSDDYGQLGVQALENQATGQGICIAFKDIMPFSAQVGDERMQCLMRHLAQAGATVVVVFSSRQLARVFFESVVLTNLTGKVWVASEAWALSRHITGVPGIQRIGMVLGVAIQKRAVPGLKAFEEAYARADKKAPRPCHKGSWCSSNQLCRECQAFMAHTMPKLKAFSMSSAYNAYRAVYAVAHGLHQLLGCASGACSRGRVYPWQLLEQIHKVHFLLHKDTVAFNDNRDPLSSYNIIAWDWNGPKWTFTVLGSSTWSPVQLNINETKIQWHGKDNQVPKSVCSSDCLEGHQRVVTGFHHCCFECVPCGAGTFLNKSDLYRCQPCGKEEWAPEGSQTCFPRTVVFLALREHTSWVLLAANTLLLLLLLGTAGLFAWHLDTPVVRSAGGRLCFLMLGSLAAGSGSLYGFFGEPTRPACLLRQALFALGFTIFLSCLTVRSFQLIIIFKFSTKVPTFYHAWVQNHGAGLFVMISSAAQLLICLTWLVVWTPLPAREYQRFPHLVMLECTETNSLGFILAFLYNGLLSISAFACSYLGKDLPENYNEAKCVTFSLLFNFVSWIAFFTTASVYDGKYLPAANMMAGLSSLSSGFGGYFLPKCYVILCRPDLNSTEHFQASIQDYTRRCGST
T1 sequence (Q7RTX0 21-852): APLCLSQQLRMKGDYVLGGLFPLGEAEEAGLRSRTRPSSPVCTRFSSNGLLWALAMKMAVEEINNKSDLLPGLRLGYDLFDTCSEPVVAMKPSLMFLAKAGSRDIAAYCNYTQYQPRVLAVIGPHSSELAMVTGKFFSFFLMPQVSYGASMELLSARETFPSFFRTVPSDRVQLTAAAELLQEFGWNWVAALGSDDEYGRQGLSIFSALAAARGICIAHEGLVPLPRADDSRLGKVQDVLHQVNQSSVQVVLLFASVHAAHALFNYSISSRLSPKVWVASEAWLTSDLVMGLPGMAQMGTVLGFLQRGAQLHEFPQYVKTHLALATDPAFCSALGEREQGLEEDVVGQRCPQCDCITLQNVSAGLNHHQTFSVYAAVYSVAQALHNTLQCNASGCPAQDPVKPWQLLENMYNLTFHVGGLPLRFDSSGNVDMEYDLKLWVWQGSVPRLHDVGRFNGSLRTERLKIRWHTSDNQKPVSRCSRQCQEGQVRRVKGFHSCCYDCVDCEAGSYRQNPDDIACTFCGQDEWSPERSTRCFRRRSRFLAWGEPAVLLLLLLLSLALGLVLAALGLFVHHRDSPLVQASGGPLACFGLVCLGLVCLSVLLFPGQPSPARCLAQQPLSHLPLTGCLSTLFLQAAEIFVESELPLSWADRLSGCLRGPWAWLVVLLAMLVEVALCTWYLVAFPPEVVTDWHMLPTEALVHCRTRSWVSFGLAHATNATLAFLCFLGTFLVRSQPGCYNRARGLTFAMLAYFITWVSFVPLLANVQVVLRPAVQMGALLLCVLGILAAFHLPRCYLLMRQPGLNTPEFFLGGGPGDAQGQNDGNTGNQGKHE
Description: A series of measurements of the dose response is run in solutions comprising MSG alone, then a second dose response is run with MSG in combination with predetermined amounts of a candidate compound of Formula (I) at the same time.
Typical compound concentrations tested were 30 μM, 10 μM, 3 μM, 1 μM, 0.3 μM, 0.1 μM and 0.03 μM. The relative efficacy of compounds of Formula (I) at enhancing the receptor was determined by calculating the magnitude of a shift in the EC50 for monosodium glutamate. Enhancement was defined as a ratio (EC50R) corresponding to the EC50 of monosodium glutamate, determined in the absence of the test compound, divided by the EC50 of monosodium glutamate, determined in the presence of the test compound.
Stated alternatively, “EC50 ratio” as compared to MSG is calculated based on the following definitions: EC50 Ratio vs. MSG=EC50 (MSG)/EC50(MSG+[Compound]) • wherein “[compound]” refers to the concentration of the compound of Formula (I) used to elicit (or enhance or potentiate) the MSG dose response.

SMILES: COC(=O)[C@@H](CC(C)C)NC(=O)c1cc(C)c(C)o1 [Example 98, (R)-methyl-2-(2,3-dimethylfuran-5-carboxamido)-4-methylpentanoate]
- Taste Data: concentration of cpd with 12 mM MSG that is as strong as 12 mM MSG + 100 μM IMP [1]: 12 mM MSG + 10 μM cpd as strong as

SMILES: COC[C@@H](CC(C)C)NC(=O)c1ccc(C)c(C)c1 [Example 71, (R)—N-(1-methoxy-4-methylpentan-2-yl)-3,4-dimethylbenzamide]
- Taste Data: concentration of cpd with 12 mM MSG that is as strong as 12 mM MSG + 100 μM IMP [1]: 12 mM MSG + 3 μM cpd as strong as

SMILES: COC[C@@H](CC(C)C)NC(=O)c1ccc(OC)c(C)c1 [Example 104, 4-Methoxy-N-(1-methoxymethyl-3-methyl-butyl)-3-methyl-benzamide]
- Taste Data: concentration of cpd with 12 mM MSG that is as strong as 12 mM MSG + 100 μM IMP [1]: 12 mM MSG + 3 μM cpd as strong as

SMILES: O=C(Nc1ccc2c(c1)OCO2)N1Cc2ccccc2C1 [Example 174, N-(3,4-methylenedioxyphenyl)isoindoline-2-carboxamide]
- Perceived Equivalent Sweet Solution ([2]; 50 uM compound + 4% sucrose, pH not measured or controlled): 6% sucrose

SMILES: COc1ccc(CNC(=O)C(=O)NCCc2ccccn2)c(OC)c1 [Example 123, N-(2,4-Dimethoxy-benzyl)-N′-(2-pyridin-2-yl-ethyl)-oxalamide]
- EC50 ratio (enhanced the effectiveness of monosodium glutamate) ([3]; compound present at 0.3 μM): 6.51
- Taste Data: concentration of cpd with 12 mM MSG that is as strong as 12 mM MSG + 100 μM IMP [1]: 12 mM MSG + 1 μM cpd as strong as

SMILES: CCCC(CCC)NC(=O)c1ccc2c(c1)OCO2 [Example 1, N-(heptan-4-yl)benzo[d][1,3]dioxole-5-carboxamide]
- EC50 ratio (enhanced the effectiveness of monosodium glutamate) ([3]; compound present at 0.03 μM): 6.92
- Taste Data: concentration of cpd with 12 mM MSG that is as strong as 12 mM MSG + 100 μM IMP [1]: 12 mM MSG + 3 μM cpd as strong as

SMILES: COC(=O)[C@@H](CC(C)C)NC(=O)c1ccc2c(c1)OCO2 [Example 6, (R)-methyl 2-(benzo[d][1,3]dioxole-6-carboxamido)-4-methylpentanoate]
- EC50 ratio (enhanced the effectiveness of monosodium glutamate) ([3]; compound present at 0.1 μM): 4.9
- Taste Data: concentration of cpd with 12 mM MSG that is as strong as 12 mM MSG + 100 μM IMP [1]: 12 mM MSG + 10 μM cpd as strong as

SMILES: Cc1c(F)c(F)c(C(=O)NC2CCCCC2C)c(F)c1F (stereo not drawn) [Example 162, 2,3,5,6-tetrafluoro-4-methyl-N-(2-methylcyclohexyl)benzamide]
- Perceived Equivalent Sweet Solution ([2]; 10 uM compound + 6% fructose/glucose, pH 7.1): ≥ 8% fructose/glucose
- Perceived Equivalent Sweet Solution ([2]; 10 uM compound + 7% fructose/glucose, pH 2.8): ≥ 9% fructose/glucose

SMILES: Cc1cccc(C)c1C(=O)NC1CCCCC1C (stereo not drawn) [Example 168, 2,6-dimethyl-N-(2-methylcyclohexyl)benzamide]
- Perceived Equivalent Sweet Solution ([2]; 30 uM compound + 6% fructose/glucose, pH 7.1): Equal to 8% fructose/ % fructose/glucose

SMILES: CCCC(CCC)NC(=O)c1ccc2c(c1)OC(CC(=O)OCC)O2 (stereo not drawn) [Example 19, Ethyl 2-(5-(heptan-4-ylcarbamoyl)benzo[d][1,3]dioxol-2-yl)acetate]
- EC50 ratio (enhanced the effectiveness of monosodium glutamate) ([3]; compound present at 3 μM): 2.5

SMILES: COc1ccc(C(=O)N[C@H](C)c2ccccc2)cc1Cl [Example 63, (R)-3-chloro-4-methoxy-N-(1-phenylethyl)benzamide]
- EC50 ratio (enhanced the effectiveness of monosodium glutamate) ([3]; compound present at 0.3 μM): 2.7
